Reference: US20180050093A1, “LEPTIN ACTIVE PEPTIDE HAVING D HELIX REGION MUTATIONS, CODING GENE THEREOF, AND APPLICATION THEREOF” (SUN YAT-SEN UNIVERSITY, priority 2015, published 2018)

Test system: 3T3-L1 preadipocytes
Experiment: In-vitro lipid-lowering (adipocyte-degrading) activity analysis, MTT detection
Assay type: cell-based
Settings: for adipocyte lysis activity vs. negative control (Control, PBS): FIG. 2 mark a
Protocol: Preadipocytes: induced preadipocytes stage; D0-D2: 0-2nd day of induced differentiation (an early stage of differentiation); D9: the 9th day of induced differentiation (a mature adipocyte stage).
1.2 In-Vitro Lipid-Lowering Activity Analysis of the Leptin Active Peptide
Lipid degradation activity of the synthesized leptin active peptide having helix D region mutation is analyzed on a cellular level by taking a 3T3-L1 preadipocyte line as a model. Specific operations are as follows:
b: an early differentiation stage D0-D2 (0-2nd day of induced differentiation); and
c: a mature adipocyte stage D9 (the 9th day of induced differentiation);
a. leptin active peptide having helix D region mutation (PEP-D): diluted to […] with purified water and preserved at −20° C. for later use. After an experiment is started, working concentrations have 3 concentration gradients, that is, 10^−6M, 10^−9M and 10^−11M;
b. positive control. I: H-LEP, recombinant human-derived leptin protein (10221-HNAE, Beijing Sino Biological Inc.), diluted to 10^−6M with purified water and preserved at −20° C. for later use. After an experiment is started, the working concentration is 10^−9M;
c. positive control 2: Ros (rosiglitazone,R2408,Sigma), diluted to a stock solution with a concentration of 2518 μM with DMSO and preserved at −20° C. for later use. After an experiment is started, the stock solution is diluted to a working solution of 0.5 μM with cell culture fluid;
d. negative control (Control): equivalent quantity of PBS
(1) Inoculating 3T3-L1 preadipocytes in corning cell bind 96-well plates (totally inoculated with 3 plates, respectively plate a, plate b and plate c), wherein the inoculation density is 4500 cells/well; and marking, and standing and culturing at 37° C. in a 5% CO2 incubator. Each sample of each plate is operated repeatedly for 3 times, and the whole experiment is repeated for 3 times;
(2) Continuously culturing for 48 hours after the cells are merged to 100% (enabling the cells to exit from a growth cycle, and starting induced differentiation); and
i, taking out the plate a; respectively adding different amounts of leptin active peptide having helix D region mutation (PEP-D) to enable the working concentrations to be respectively 3 concentration gradients, that is, 10^−6M, 10^−9M and 10^−11M; setting 2 positive controls, a negative control (PBS) and a blank control (3 repeated holes are set for each sample), and continuously standing and culturing at 37° C. in the 5% CO2 incubator.
ii, when culturing to 45 hours (that is, 3 hours before the end of drug treatment), taking out the plate a, and measuring MTT (preadipocytes). Specific operations: adding 20 μL of 5 mg/mL of MTT solution into each well, continuously standing and culturing at 37° C. in the 5% CO2 incubator for 3 hours, sucking and discarding the culture solution in the wells, adding 150 μL of DMSO into each well, horizontally shaking for 10 min, detecting a light absorption value at 492 nm by a microplate reader, and drawing a growth curve;
i, taking out the plate b; adding the differentiation induced liquid I (D0); respectively adding the leptin active peptide having helix D region mutation (PEP-D); setting 2 positive controls, a negative control (PBS) and a blank control (3 repeated holes are set for each sample), and continuously standing and culturing at 37° C. in the 5% CO2 incubator.
ii, when culturing to 45 hours (that is, 3 hours before the end of drug treatment), taking out the plate b, and measuring MTT (at the early differentiation stage, D0-D2). Specific operations: adding 20 μL, of 5 mg/mL of MTT solution into each well; continuously standing and culturing at 37° C. in the 5% CO2 incubator for 3 hours; sucking and discarding the culture solution in the wells; adding 150 μL of DMSO into each well; horizontally shaking for 10 min; detecting a light absorption value at 492 nm by the microplate reader; and drawing a growth curve; […]

[1] = P<0.05, H-LEP 10^−9M, Ros 0.5 μM

Compound	adipocyte lysis activity vs. negative control (Control, PBS) [1]	adipocyte lysis activity vs. H-LEP (FIG. 2 mark b, P<0.05)	adipocyte lysis activity vs. Ros (FIG. 2 mark c, P<0.05)	adipocyte-degrading activity compared with the positive controls H-LEP and Ros (MTT, three cell differentiation stages (preadipocytes, early differentiation D0-D2, mature adipocyte D9), PEP-D 10^−6M, 10^−9M, 10^−11M, H-LEP 10^−9M, Ros 0.5 μM)	concentration dependence of lipid-lowering activity (MTT, working concentrations 10^−6M, 10^−9M and 10^−11M)	cell lysis effects at cell stages (preadipocytes stage, differentiation stage (D0-D2), mature adipocyte stage (D9))
CN(CCOc1ccc(CC2SC(=O)NC2=O)cc1)c1ccccn1 (stereo not shown) [Ros, rosiglitazone, reference compound]	obviously better than that of the negative control	–	–	–	–	–
H-LEP: recombinant human-derived leptin protein (10221-HNAE, Beijing Sino Biological Inc.), positive control	obviously better than that of the negative control	–	–	–	–	–
STEVVALDGLQGSLQTMLLQLEYS (An amino acid sequence of the leptin active peptide having helix D region mutation) [PEP-D]	–	obviously better than that of the H-LEP	obviously better than that of the Ros	obviously better than that of positive control-human-derived leptin protein (H-LEP) and a commercially available drug rosiglitazone (Ros)	obvious concentration dependence	obvious cell lysis effects at three stages
